Laboratory results published in patent US20240398828A1, “HETERO-ATOM CONTAINING COMPOUNDS AND USES THEREOF” (Kumquat Biosciences Inc., priority 2021, published 2024).

Experiments:
PTPN2 (i.e., TC-PTP) = target: T1, PTPN2 (i.e., TC-PTP) (Homo sapiens, UniProt P17706); test: Phosphatase activity assay (DiFMUP substrate), PTPN2; assay type: biochemical; settings: compounds binned ≤1 uM or >1 uM
T1 sequence (P17706 1-415): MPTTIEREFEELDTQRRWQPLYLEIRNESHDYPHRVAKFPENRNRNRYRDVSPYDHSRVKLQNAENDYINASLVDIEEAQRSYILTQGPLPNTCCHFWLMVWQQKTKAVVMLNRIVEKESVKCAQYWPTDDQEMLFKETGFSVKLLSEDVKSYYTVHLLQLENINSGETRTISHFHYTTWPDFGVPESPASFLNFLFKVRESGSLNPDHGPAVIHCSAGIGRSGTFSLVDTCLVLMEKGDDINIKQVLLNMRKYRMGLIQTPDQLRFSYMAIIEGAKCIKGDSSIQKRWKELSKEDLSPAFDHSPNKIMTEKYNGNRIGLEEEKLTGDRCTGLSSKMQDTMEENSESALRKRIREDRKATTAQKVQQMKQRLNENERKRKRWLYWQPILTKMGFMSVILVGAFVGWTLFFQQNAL
Experimental: (§1) The selectivity and potency of a small molecule PTPN2 inhibitor as provided herein against one or more protein tyrosine phosphatase (PTP) enzymes, and specifically against PTPN2, is assessed in various ways. The one or more PTP enzymes comprise Mycobacterium protein tyrosine phosphatase A (mPTPA), Mycobacterium protein tyrosine phosphatase B (mPTPB), PTPN1 (i.e., PTP1B), PTPN2 (i.e., TC-PTP), PTPN22 (i.e., LYP), SHP-1, SHP-2, FAP-1, Meg2, HePTP, Laforin, VHX, VHR, LMWPTP, Cdc14A, LAR, CD45, PTPRG, a fragment thereof, a variant thereof, and a combination thereof. Selectivity and potency of a small molecule PTPN2 inhibitor is evaluated using a PTP activity inhibition assay. The assay is performed using a buffer comprising 50 mM HEPES buffer pH 7.5, 150 mM NaCl, 0.5 mM EDTA, 1 mM DTT, 0.001% Tween-20.
(§2) The assay is performed using a phosphated substrate, e.g., 10 mM 6,8-Difluoro-4-Methylumbelliferyl Phosphate (DIFMUP) that is stored at −20° C. Alternatively or in addition to, the assay is performed using other phosphated substrate (e.g., fluorescein diphosphate). Each PTP enzyme is diluted in the assay buffer
(§3) The assay can be carried out at room temperature in multiplate format, e.g., using 384 well plates. A small molecule PTPN2 inhibitor dissolved in DMSO at one of 10 concentrations from a serial dilution or DMSO alone for control is added to each well. A mixture of the assay buffer comprising PTP enzyme (e.g., 0.025 ng/ul PTPN2) is added to each well and mixed for approximately 2 minutes. The reaction is initiated by adding DiFMUP diluted in the assay buffer to a final concentration of approximately 45 μM DiFMUP in PTPN2 assay. For each PTP enzyme, DiFMUP is added at the Km (Michaelis constant) of the enzyme that had been independently determined. The phosphatase activity of the PTP enzyme is assessed by monitoring appearance of a fluorescent product (6,8-difluoro-7-hydroxyl-4-coumarin (DiFMU) from DiFMUP) continuously for about 15 to 30 minutes, using the INFINITE M1000Pro plate reader (Tecan) with excitation at 360 nm and emission at 450 nm (cutoff filter at 435 nm) for DiFMU. Each assay is performed at least in duplicate. The rate (e.g., the initial rate) of DiFMU formation is plotted against the concentration of the small molecule PTPN2 inhibitor, and the data is fitted (e.g., using a 4-parameter equation) to determine the inflection point of the fit as the IC50 of the small molecule PTPN2 inhibitor for a specific enzyme. Utilizing this assay, the ability of the compounds in Table 2 to inhibit PTPN2 and PTP1B has been assessed. Table 3 summarizes the IC50 values.

PTPN1 (i.e., PTP1B) = target: T2, PTPN1 (i.e., PTP1B) (Homo sapiens, UniProt P18031); test: Phosphatase activity assay (DiFMUP substrate), PTP1B; assay type: biochemical; settings: compounds binned ≤1 uM or >1 uM
T2 sequence (P18031 1-435): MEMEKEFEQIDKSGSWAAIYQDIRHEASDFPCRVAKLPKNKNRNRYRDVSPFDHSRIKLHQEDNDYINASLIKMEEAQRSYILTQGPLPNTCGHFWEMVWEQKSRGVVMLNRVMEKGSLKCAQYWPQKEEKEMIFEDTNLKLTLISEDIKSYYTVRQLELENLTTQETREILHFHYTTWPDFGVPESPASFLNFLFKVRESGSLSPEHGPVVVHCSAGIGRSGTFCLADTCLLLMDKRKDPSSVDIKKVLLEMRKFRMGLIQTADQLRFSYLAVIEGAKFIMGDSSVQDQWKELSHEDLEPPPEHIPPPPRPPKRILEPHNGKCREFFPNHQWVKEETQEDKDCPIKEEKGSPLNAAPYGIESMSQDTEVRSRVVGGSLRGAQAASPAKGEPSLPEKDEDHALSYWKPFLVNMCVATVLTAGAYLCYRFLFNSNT
Experimental: as §1, §2, §3

SMILES: O=C1CN(c2c(O)ccc(-c3cc(N4CC(F)(F)C4)n[nH]3)c2F)S(=O)(=O)N1 [Compound 451, 5-(3-(3-(3,3-difluoroazetidin-1-yl)-1H-pyrazol-5-yl)-2-fluoro-6-hydroxyphenyl)-1,2,5-thiadiazolidin-3-one 1,1-dioxide]
- IC50 (PTPN2 (i.e., TC-PTP)): ≤ 1000 nM
- IC50 (PTPN1 (i.e., PTP1B)): ≤ 1000 nM

SMILES: Cc1cc(O)c(N2CC(=O)NS2(=O)=O)cc1-c1cnn(C)c1 [Compound 358, 5-(2-hydroxy-4-methyl-5-(1-methyl-1H-pyrazol-4-yl)phenyl)-1,2,5-thiadiazolidin-3-one 1,1-dioxide]
- IC50 (PTPN2 (i.e., TC-PTP)): > 1000 nM
- IC50 (PTPN1 (i.e., PTP1B)): > 1000 nM

SMILES: COc1ccc(-n2cnc(-c3ccc(O)c(N4CC(=O)NS4(=O)=O)c3F)c2)cc1 [Compound 348, 5-(2-fluoro-6-hydroxy-3-(1-(4-methoxyphenyl)-1H-imidazol-4-yl)phenyl)-1,2,5-thiadiazolidin-3-one 1,1-dioxide]
- IC50 (PTPN2 (i.e., TC-PTP)): ≤ 1000 nM
- IC50 (PTPN1 (i.e., PTP1B)): ≤ 1000 nM

SMILES: Cn1ccc(-c2ccc(F)c(N3CC(=O)NS3(=O)=O)c2F)c1 [Compound 116, 5-(2,6-difluoro-3-(1-methyl-1H-pyrrol-3-yl)phenyl)-1,2,5-thiadiazolidin-3-one 1,1-dioxide]
- IC50 (PTPN2 (i.e., TC-PTP)): > 1000 nM
- IC50 (PTPN1 (i.e., PTP1B)): > 1000 nM

SMILES: O=C1CN(c2c(O)ccc(C3=CCN(CC4CCCCC4)C3)c2F)S(=O)(=O)N1 [Compound 267, 5-(3-(1-(cyclohexylmethyl)-2,5-dihydro-1H-pyrrol-3-yl)-2-fluoro-6-hydroxyphenyl)-1,2,5-thiadiazolidin-3-one 1,1-dioxide]
- IC50 (PTPN2 (i.e., TC-PTP)): ≤ 1000 nM
- IC50 (PTPN1 (i.e., PTP1B)): ≤ 1000 nM

SMILES: CC(C)C1C=C(c2ccc(O)c(N3CC(=O)NS3(=O)=O)c2F)CN1 (stereo not drawn) [Compound 482, 5-(2-fluoro-6-hydroxy-3-(5-isopropyl-2,5-dihydro-1H-pyrrol-3-yl)phenyl)-1,2,5-thiadiazolidin-3-one 1,1-dioxide]
- IC50 (PTPN2 (i.e., TC-PTP)): ≤ 1000 nM
- IC50 (PTPN1 (i.e., PTP1B)): ≤ 1000 nM

SMILES: O=C1CN(c2c(O)ccc(-c3cc(C4CCOC4)n[nH]3)c2F)S(=O)(=O)N1 (stereo not drawn) [Compound 326, 5-(2-fluoro-6-hydroxy-3-(3-(tetrahydrofuran-3-yl)-1H-pyrazol-5-yl)phenyl)-1,2,5-thiadiazolidin-3-one 1,1-dioxide]
- IC50 (PTPN2 (i.e., TC-PTP)): ≤ 1000 nM
- IC50 (PTPN1 (i.e., PTP1B)): ≤ 1000 nM

SMILES: CCCC1C=C(c2ccc(O)c(N3CC(=O)NS3(=O)=O)c2F)CN1 (stereo not drawn) [Compound 515, 5-(2-fluoro-6-hydroxy-3-(5-propyl-2,5-dihydro-1H-pyrrol-3-yl)phenyl)-1,2,5-thiadiazolidin-3-one 1,1-dioxide]
- IC50 (PTPN2 (i.e., TC-PTP)): ≤ 1000 nM
- IC50 (PTPN1 (i.e., PTP1B)): ≤ 1000 nM

SMILES: O=C1CN(c2c(O)ccc(-c3cnn(Cc4cccc(C(F)(F)F)c4)c3)c2F)S(=O)(=O)N1 [Compound 159, 5-(2-fluoro-6-hydroxy-3-(1-(3-(trifluoromethyl)benzyl)-1H-pyrazol-4-yl)phenyl)-1,2,5-thiadiazolidin-3-one 1,1-dioxide]
- IC50 (PTPN2 (i.e., TC-PTP)): ≤ 1000 nM
- IC50 (PTPN1 (i.e., PTP1B)): ≤ 1000 nM

SMILES: CC(C)CNCc1cc(-c2ccc(O)c(N3CC(=O)NS3(=O)=O)c2F)[nH]n1 [Compound 436, 5-(2-fluoro-6-hydroxy-3-(3-((isobutylamino)methyl)-1H-pyrazol-5-yl)phenyl)-1,2,5-thiadiazolidin-3-one 1,1-dioxide]
- IC50 (PTPN2 (i.e., TC-PTP)): ≤ 1000 nM
- IC50 (PTPN1 (i.e., PTP1B)): ≤ 1000 nM

SMILES: O=C1CN(c2c(O)ccc(C3=CCN(S(=O)(=O)C4CC4)C3)c2F)S(=O)(=O)N1 [Compound 238, 5-(3-(1-(cyclopropylsulfonyl)-2,5-dihydro-1H-pyrrol-3-yl)-2-fluoro-6-hydroxyphenyl)-1,2,5-thiadiazolidin-3-one 1,1-dioxide]
- IC50 (PTPN2 (i.e., TC-PTP)): ≤ 1000 nM
- IC50 (PTPN1 (i.e., PTP1B)): ≤ 1000 nM

SMILES: N#CCn1cc(-c2ccc(O)c(N3CC(=O)NS3(=O)=O)c2F)cn1 [Compound 130, 2-(4-(3-(1,1-dioxido-4-oxo-1,2,5-thiadiazolidin-2-yl)-2-fluoro-4-hydroxyphenyl)-1H-pyrazol-1-yl)acetonitrile]
- IC50 (PTPN2 (i.e., TC-PTP)): ≤ 1000 nM
- IC50 (PTPN1 (i.e., PTP1B)): ≤ 1000 nM

SMILES: O=C1CN(c2c(O)ccc(-c3cn(Cc4cccc(F)c4)cn3)c2F)S(=O)(=O)N1 [Compound 200, 5-(2-fluoro-3-(1-(3-fluorobenzyl)-1H-imidazol-4-yl)-6-hydroxyphenyl)-1,2,5-thiadiazolidin-3-one 1,1-dioxide]
- IC50 (PTPN2 (i.e., TC-PTP)): ≤ 1000 nM
- IC50 (PTPN1 (i.e., PTP1B)): ≤ 1000 nM

SMILES: O=C1C=C(c2c(O)ccc(-c3cn(C4CC4)cn3)c2F)S(=O)(=O)N1 [Compound 244, 5-(3-(1-cyclopropyl-1H-imidazol-4-yl)-2-fluoro-6-hydroxyphenyl)isothiazol-3(2H)-one 1,1-dioxide]
- IC50 (PTPN2 (i.e., TC-PTP)): ≤ 1000 nM
- IC50 (PTPN1 (i.e., PTP1B)): ≤ 1000 nM

SMILES: Cc1n[nH]c(C)c1-c1ccc(O)c(N2CC(=O)NS2(=O)=O)c1F [Compound 164, 5-(3-(3,5-dimethyl-1H-pyrazol-4-yl)-2-fluoro-6-hydroxyphenyl)-1,2,5-thiadiazolidin-3-one 1,1-dioxide]
- IC50 (PTPN2 (i.e., TC-PTP)): > 1000 nM
- IC50 (PTPN1 (i.e., PTP1B)): > 1000 nM

SMILES: O=C1CN(c2c(O)ccc(-c3cn(CC4CC4)nc3F)c2F)S(=O)(=O)N1 [Compound 233, 5-(3-(1-(cyclopropylmethyl)-3-fluoro-1H-pyrazol-4-yl)-2-fluoro-6-hydroxyphenyl)-1,2,5-thiadiazolidin-3-one 1,1-dioxide]
- IC50 (PTPN2 (i.e., TC-PTP)): ≤ 1000 nM
- IC50 (PTPN1 (i.e., PTP1B)): ≤ 1000 nM

SMILES: CC(C)CCn1cc(-c2ccc(O)c(N3CC(=O)NS3(=O)=O)c2)cn1 [Compound 132, 5-(2-hydroxy-5-(1-isopentyl-1H-pyrazol-4-yl)phenyl)-1,2,5-thiadiazolidin-3-one 1,1-dioxide]
- IC50 (PTPN2 (i.e., TC-PTP)): ≤ 1000 nM
- IC50 (PTPN1 (i.e., PTP1B)): ≤ 1000 nM

SMILES: CC1NCC=C1c1ccc(O)c(N2CC(=O)NS2(=O)=O)c1F (stereo not drawn) [Compound 512, 5-(2-fluoro-6-hydroxy-3-(2-methyl-2,5-dihydro-1H-pyrrol-3-yl)phenyl)-1,2,5-thiadiazolidin-3-one 1,1-dioxide]
- IC50 (PTPN2 (i.e., TC-PTP)): > 1000 nM
- IC50 (PTPN1 (i.e., PTP1B)): > 1000 nM

SMILES: O=C1CN(c2c(O)ccc(-c3cc(N4CC5(CCC5)C4)n[nH]3)c2F)S(=O)(=O)N1 [Compound 323, 5-(3-(3-(2-azaspiro[3.3]heptan-2-yl)-1H-pyrazol-5-yl)-2-fluoro-6-hydroxyphenyl)-1,2,5-thiadiazolidin-3-one 1,1-dioxide]
- IC50 (PTPN2 (i.e., TC-PTP)): ≤ 1000 nM
- IC50 (PTPN1 (i.e., PTP1B)): ≤ 1000 nM

SMILES: O=C1CN(c2c(O)ccc(-c3nnc(C4CC4)[nH]3)c2F)S(=O)(=O)N1 [Compound 235, 5-(3-(5-cyclopropyl-4H-1,2,4-triazol-3-yl)-2-fluoro-6-hydroxyphenyl)-1,2,5-thiadiazolidin-3-one 1,1-dioxide]
- IC50 (PTPN2 (i.e., TC-PTP)): ≤ 1000 nM
- IC50 (PTPN1 (i.e., PTP1B)): ≤ 1000 nM

SMILES: O=C1CN(c2c(O)ccc(-c3cnn(CC4CC5CCC(C4)N5C(=O)C4CC4)c3)c2F)S(=O)(=O)N1 (stereo not drawn) [Compound 295, 5-(3-(1-((8-(cyclopropanecarbonyl)-8-azabicyclo[3.2.1]octan-3-yl)methyl)-1H-pyrazol-4-yl)-2-fluoro-6-hydroxyphenyl)-1,2,5-thiadiazolidin-3-one 1,1-dioxide]
- IC50 (PTPN2 (i.e., TC-PTP)): ≤ 1000 nM
- IC50 (PTPN1 (i.e., PTP1B)): ≤ 1000 nM
